Test results from US20160318928A1, “TRICYCLIC COMPOUNDS AS ANTICANCER AGENTS” (BRISTOL-MYERS SQUIBB COMPANY, priority 2013, published 2016).

These molecules were tested against BRD4 (Homo sapiens, UniProt O60885) (assay: Time resolved fluorescence resonance energy transfer (TR-FRET) binding assay, BRD4 bromodomain). Conditions: one of the FRET assays described.

`COc1cccnc1C(C1CCOCC1)n1c2cc(C(C)(C)O)ccc2c2ncc(-c3c(C)nnn3C)cc21` (stereo not shown) [Example 291] and `Cc1nnn(C)c1-c1cnc2c3ccc(C(C)(C)O)cc3n([C@@H](c3ccc(F)cc3)C3CCOCC3)c2c1` [Example 60] cannot be ordered by IC50: < 5 nM for the first, < 5 nM for the second.

`Cc1nnn(C)c1-c1cnc2c3ccc(C(C)(C)O)cc3n(C(CCC(F)(F)F)CCC(F)(F)F)c2c1` [Example 56] and `Cc1nnn(C)c1-c1cnc2c3ccc(C(C)(C)O)c(F)c3n(C(CCC(F)(F)F)CCC(F)(F)F)c2c1` [Example 74] cannot be ordered by IC50: < 5 nM for the first, < 25 nM for the second.

`[2H]C([2H])([2H])c1nnn(C)c1-c1cnc2c3c(OC)cc(C(C)(C)O)cc3n(C(c3ccc(F)cc3)C3CCOCC3)c2c1` (stereo not shown) [Example 275] and `Cc1nnn(C)c1-c1cnc2c3ccc(C(C)(C)O)cc3n([C@@H](c3ccc(F)cc3)C3CCOCC3)c2c1` [Example 73] cannot be ordered by IC50: < 5 nM for the first, < 5 nM for the second.

`Cc1nnn(C)c1-c1cnc2c3cc(F)c(C(C)(C)O)c(F)c3n([C@H](c3ccccc3)C3CCOCC3)c2c1` [Example 451, 2-[3-(Dimethyl-1H-1,2,3-triazol-5-yl)-6,8-difluoro-5-[(S)-oxan-4-yl(phenyl)methyl]-5H-pyrido[3,2-b]indol-7-yl]propan-2-ol] and `Cc1nnn(C)c1-c1cnc2c3ccc(C(C)(C)O)cc3n([C@H](c3ccc(F)cc3)C3CCOCC3)c2c1` [Example 59] cannot be ordered by IC50: < 5 nM for the first, < 5 nM for the second.

`Cc1nnn(C)c1-c1cnc2c3ccc(CN(C)C)cc3n([C@H](c3ccccc3)C3CCOCC3)c2c1` [Example 406, {[3-(Dimethyl-1H-1,2,3-triazol-5-yl)-5-[(S)-oxan-4-yl(phenyl)methyl]-5H-pyrido[3,2-b]indol-7-yl]methyl}dimethylamine] and `Cc1nnn(C)c1-c1cnc2c3ccc(S(C)(=N)=O)cc3n([C@H](c3ccccc3)C3CCOCC3)c2c1` (single isomer, unassigned) [Example 372] cannot be ordered by IC50: < 5 nM for the first, < 5 nM for the second.

`[2H]C([2H])([2H])c1nnn(C)c1-c1cnc2c3ccc(C(C)(C)O)c(F)c3n([C@H](c3ccccc3F)C3CCCOC3)c2c1` (stereo partly shown) [Example 272] and `[2H]C([2H])([2H])c1nnn(C)c1-c1cnc2c3ccc(C(C)(C)O)cc3n(C(c3ccccc3F)C3CCOCC3)c2c1` (stereo not shown) [Example 266] cannot be ordered by IC50: < 5 nM for the first, < 5 nM for the second.

`Cc1noc(C)c1-c1cnc2c3ccc(C(C)(C)O)cc3n(C(c3ccccc3)c3ccccc3)c2c1` [Example 3] and `CCCC(CCC)n1c2cc(C(C)(C)O)ccc2c2ncc(-c3c(C)noc3C)cc21` [Example 8] cannot be ordered by IC50: < 5 nM for the first, < 5 nM for the second.

`COCC(C1CCOCC1)n1c2cc(C(C)(C)O)ccc2c2ncc(-c3c(C)nnn3C)cc21` (single isomer, unassigned) [Example 397] and `CCCC(CCC)n1c2cc(C(C)(C)O)ccc2c2ncc(-c3c(C)nnn3C)cc21` [Example 61] cannot be ordered by IC50: < 25 nM for the first, < 5 nM for the second.

`Cc1nnn(C)c1-c1cnc2c3cc(C(=O)N4CC(O)C4)ccc3n([C@H](c3ccccc3)C3CCOCC3)c2c1` [Example 429, 1-[3-(Dimethyl-1H-1,2,3-triazol-5-yl)-5-[(S)-oxan-4-yl(phenyl)methyl]-5H-pyrido[3,2-b]indole-8-cabonyl]azetidine-3-ol] and `Cc1nnn(C)c1-c1cnc2c3cc(C(=O)N4CC(F)C4)ccc3n([C@H](c3ccccc3)C3CCOCC3)c2c1` [Example 430, 5-[8-(3-Fluoroazetidine-1-carbonyl)-5-[(S)-oxan-4-yl(phenyl)methyl]-5H-pyrido[3,2-b]indol-3-yl]-1,4-dimethyl-1H-1,2,3-triazole] cannot be ordered by IC50: < 5 nM for the first, < 5 nM for the second.

`Cc1nnn(C)c1-c1cnc2c3cc(C(=O)N4CC(F)(F)C4)ccc3n([C@H](c3ccccc3)C3CCOCC3)c2c1` [Example 428, 5-[8-(3,3-Difluoroazetidine-1-carbonyl)-5-[(S)-oxan-4-yl(phenyl)methyl]-5H-pyrido[3,2-b]indol-3-yl]-1,4-dimethyl-1H-1,2,3-triazole] and `Cc1nnn(C)c1-c1cnc2c3ccc(S(C)(=N)=O)cc3n([C@H](c3ccccc3)C3CCOCC3)c2c1` (single isomer, unassigned) [Example 371] cannot be ordered by IC50: < 5 nM for the first, < 5 nM for the second.

`CCCC(CCC)n1c2cc(-c3c(C)noc3C)cnc2c2ccc(C(C)(C)O)c(F)c21` [Example 82] and `CCCC(CCC)n1c2cc(-c3c(C)nnn3C)cnc2c2ccc(C(C)(C)O)c(F)c21` [Example 75] cannot be ordered by IC50: < 25 nM for the first, < 5 nM for the second.

`[2H]C([2H])([2H])c1nnn(C)c1-c1cnc2c3c(S(C)(=O)=O)cccc3n(C(c3ccc(F)cc3)C3CCOCC3)c2c1` (stereo not shown) [Example 270] and `[2H]C([2H])([2H])c1nnn(C)c1-c1cnc2c3ccc(S(C)(=O)=O)cc3n(C(c3ccc(F)cc3)C3CCOCC3)c2c1` (stereo not shown) [Example 265] cannot be ordered by IC50: < 5 nM for the first, < 5 nM for the second.

`Cc1noc(C)c1-c1cnc2c3ccc(C(C)(C)O)c(F)c3n(C(CCC(F)(F)F)CCC(F)(F)F)c2c1` [Example 83] and `COCC(C1CCOCC1)n1c2cc(C(C)(C)O)ccc2c2ncc(-c3c(C)nnn3C)cc21` (single isomer, unassigned) [Example 396] cannot be ordered by IC50: < 25 nM for the first, < 5 nM for the second.

`Cc1nnn(C)c1-c1cnc2c3c(NS(=O)(=O)CC4CC4)ccc(S(C)(=O)=O)c3n([C@H](c3ccccc3)C3CCOCC3)c2c1` [Example 219] and `Cc1nnn(C)c1-c1cnc2c3c(NS(=O)(=O)C4CC4)ccc(S(C)(=O)=O)c3n(C(c3ccccc3)C3CCOCC3)c2c1` (stereo not shown) [Example 218] cannot be ordered by IC50: < 5 nM for the first, < 5 nM for the second.

`[2H]C([2H])([2H])c1nnn(C)c1-c1cnc2c3cc(F)c(C(C)(C)O)cc3n(C(c3ncccc3F)C3CCOCC3)c2c1` (single isomer, unassigned) [Example 459] and `[2H]C([2H])([2H])c1nnn(C)c1-c1cnc2c3c(NS(=O)(=O)CC)ccc(S(C)(=O)=O)c3n(C(c3ccccc3)C3CCOCC3)c2c1` (stereo not shown) [Example 223] cannot be ordered by IC50: < 5 nM for the first, < 25 nM for the second.

`CCS(=O)(=O)Nc1ccc(S(C)(=O)=O)c2c1c1ncc(-c3c(C)nnn3C)cc1n2[C@H](c1ccccc1)C1CCOCC1` [Example 217] was tested, and the IC50 was < 5 nM.
